In publication PMC4210147, “Sequence-Specific Dimerization of a Transmembrane Helix in Amphipol A8-35” (PLoS ONE, 2014):

What was measured:
human GpA TM domain [1] = target: T1, human GpA TM domain (Homo sapiens, UniProt P02724); experiment: FRET at different acceptor mole ratios, stoichiometry of GpA TM domain association; format: binding; conditions: constant total peptide, linear dependence, n = 2
T1 construct: purchased Peptide Specialty Laboratories, Heidelberg, Germany; host or cells: chemical synthesis (custom peptide)
T1 sequence (P02724 88-120 limits assumed) 1: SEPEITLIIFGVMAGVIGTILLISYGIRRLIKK
T1 sequence (P02724 88-120 limits assumed) 2: T1 sequence (P02724 88-120 limits assumed) 1
Protocol: […] Concentrations of the peptide stock solutions were determined from absorbance measurements on a Perkin Elmer Lambda 35 UV/VIS spectrophotometer. […] Peptides dissolved in TFE and A8-35 dissolved in ethanol were mixed, and organic solvents were removed under a gentle stream of nitrogen gas. Residual solvent traces were removed by vacuum desiccation overnight. The dried peptide/polymer film was then hydrated in 10 mM HEPES buffer (pH 7.4) containing 150 mM NaCl.
(§1) After at least 2 h of incubation at 37°C and 10 min of centrifugation at 16,000 g, steady-state fluorescence measurements were performed with the supernatant at 25°C on a Horiba Fluoromax 4 system with both excitation and emission slits at 3 nm. The excitation wavelength was set at 439 nm, and emission spectra were recorded from 480 to 650 nm. For FRET measurements with SDS, several concentrations of SDS, both below and above the CMC determined for the given buffer conditions, were used, and hydrated samples were incubated overnight.
(§2) Energy transfer E was calculated using the donor fluorescence intensities at 525 nm in presence and absence of acceptor according to [drawing 1] (1)
Besides formation of GpA dimers, the recorded energy transfer might, in principle, also originate from formation of higher-ordered oligomeric structures, such as trimers or tetramers, or even from unspecific peptide aggregation. […]

GpA TM dimer = conditions: SDS, DDMAB, DPC, lyso-PC, ref [26]-[28], cited from earlier work
human GpA TM domain [2] = target: T1, human GpA TM domain; experiment: Steady-state FRET, GpA TM helix dimerization in A8-35; format: binding; conditions: n = 3; for dimer fraction (in words): pH 7.4, 25°C
Excerpt: Peptides corresponding to residues 69–101 of the human GpA TM domain ([…]) were custom-synthesized and labeled at the N-terminus with either the donor or the acceptor dyes fluorescein (FL) and 5-6-carboxyrhodamine (TAMRA), respectively (Peptide Specialty Laboratories, Heidelberg, Germany). The purity of the labelled peptides was confirmed by high-performance liquid chromatography (HPLC) and mass spectrometry. Based on this, the labeled peptides used in this study were>95% pure. Peptides were dissolved in 2,2,2-trifluoroethanol purchased from Sigma-Aldrich (Munich, Germany). APol A8-35 was purchased from Affymetrix (Santa Clara, USA) and sodium dodecyl sulfate (SDS) from Roth (Karlsruhe, Germany). N-dodecyl-β-D-maltopyranoside (DDM) was obtained from Sigma-Aldrich (Munich, Germany).
For Förster resonance energy transfer (FRET) measurements, equal concentrations of FL- and TAMRA-labeled GpA TM domains were used. Concentrations of the peptide stock solutions were determined from absorbance measurements on a Perkin Elmer Lambda 35 UV/VIS spectrophotometer. In all experiments, we used 0.25 µM for each of the two labeled GpA peptides. Peptides dissolved in TFE and A8-35 dissolved in ethanol were mixed, and organic solvents were removed under a gentle stream of nitrogen gas. Residual solvent traces were removed by vacuum desiccation overnight. The dried peptide/polymer film was then hydrated in 10 mM HEPES buffer (pH 7.4) containing 150 mM NaCl.
as §1, §2
FD is the fluorescence intensity of the donor sample, and FDA is the fluorescence intensity of the sample containing donor and acceptor GpA TM domains at equal concentrations. The energy transfer of sequence-specific TM helix dimerization, ED, can be expressed as: [drawing 2] (2) where f D is the fraction of dimeric TM helices, P D is the probability of donor quenching when the peptides form a dimer, and E R is the energy transfer in the dimer.
The probability P D of donor quenching depends on the molar ratio of the acceptor peptides [drawing 3] , where [a] and [d] are the concentrations of acceptor and donor peptides, respectively. If the distance of the fluorophores in the dimer is much smaller than the Förster radius, as is the case here, ER can be taken as unity.
The fraction of dimers can be written as [drawing 4] , where [D] is the concentration of dimeric peptides and [T] the total peptide concentration.
The dissociation constant, K D, is given by [drawing 6] (4) where the monomer concentration is [drawing 7] .

CC[C@H](C)[C@H](NC(=O)CNC(=O)[C@H](Cc1ccc(O)cc1)NC(=O)[C@H](CO)NC(=O)[C@@H](NC(=O)[C@H](CC(C)C)NC(=O)[C@H](CC(C)C)NC(=O)[C@@H](NC(=O)[C@@H](NC(=O)CNC(=O)[C@@H](NC(=O)[C@@H](NC(=O)CNC(=O)[C@H](C)NC(=O)[C@H](CCSC)NC(=O)[C@@H](NC(=O)CNC(=O)[C@H](Cc1ccccc1)NC(=O)[C@@H](NC(=O)[C@@H](NC(=O)[C@H](CC(C)C)NC(=O)[C@@H](NC(=O)[C@@H](NC(=O)[C@H](CCC(=O)O)NC(=O)[C@@H]1CCCN1C(=O)[C@H](CCC(=O)O)NC(=O)[C@@H](N)CO)[C@@H](C)CC)[C@@H](C)O)[C@@H](C)CC)[C@@H](C)CC)C(C)C)C(C)C)[C@@H](C)CC)[C@@H](C)O)[C@@H](C)CC)[C@@H](C)CC)C(=O)N[C@@H](CCCNC(=N)N)C(=O)N[C@@H](CCCNC(=N)N)C(=O)N[C@@H](CC(C)C)C(=O)N[C@H](C(=O)N[C@@H](CCCCN)C(=O)N[C@@H](CCCCN)C(=O)O)[C@@H](C)CC [GpA TM domain]
stoichiometry of association (energy transfer vs acceptor mole fraction) (human GpA TM domain [1]; 5 µM A8-35): exclusive dimer formation | stoichiometry of association (energy transfer vs acceptor mole fraction) (human GpA TM domain [1]; 50 µM A8-35): exclusive dimer formation | dissociation constants of the GpA TM dimer upon further addition of detergent (GpA TM dimer; compared to A8-35): increase significantly | Kd (GpA TM dimer; read-out: dissociation constants of the GpA TM dimer in detergents, low detergent concentrations): ≤ 0.5 µM | dimer fraction (human GpA TM domain [2]; 25 µM A8-35, FL- and TAMRA-labeled GpA 0.25 µM each, 10 mM HEPES pH 7.4, 150 mM NaCl, incubated at least 2 h at 37°C, measured at 25°C): about 0.65 | GpA dimer dissociation at relatively higher A8-35 concentrations (human GpA TM domain [2]; A8-35 range 5 to 75 µM, in contrast to detergents): do not seem to fully dissociate the GpA dimer | dimer fraction (in words) (human GpA TM domain [2]; above 25 µM A8-35 (to 75 µM), FL- and TAMRA-labeled GpA 0.25 µM each): decreased only faintly with increasing polymer concentrations | dimer fraction (in words) (human GpA TM domain [2]; low A8-35 concentrations (range 5 to 75 µM), FL- and TAMRA-labeled GpA 0.25 µM each): Almost all peptides were dimeric | Kd (human GpA TM domain [2]; tested A8-35 range 5 to 75 µM, total labeled peptide 0.5 µM, 10 mM HEPES pH 7.4, 150 mM NaCl, 25°C, read-out: apparent dissociation constant K_D of GpA TM dimer): < 0.3 µM
